Assay results from publication PMC10746280, “Bacterial efflux pump modulators prevent bacterial growth in macrophages and under broth conditions that mimic the host environment” (mBio, 2023).

Columns and labels:
[1] = system: RAW 264.7 macrophages; test: SAFIRE macrophage assay: host toxicity (adherent macrophage count, morphology); type: cell-based
Procedure, shortened: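 RAW 264.7 macrophages infected with S. Typhimurium SL1344 sifB::gfp (MOI ~30), gentamicin 40 µg/mL, then compound from 2 h to 18 h post-infection. Confocal imaging with MitoTracker and DAPI; toxicity as adherent MitoTracker-positive macrophage count, bacterial load as GFP+ macrophage area.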

[2] = target: T1, E. coli AcrB (Escherichia coli, UniProt P31224); test: Single-particle cryo-EM of AcrB-EPM complexes in nanodiscs; conditions: "binding" protomer of the AcrB trimer; 10 µM EPM
T1 construct: 4xHis (C); made in house; host or cells: E. coli BL21-Gold (DE3), plasmid derived from pSPORT1
Description: To elucidate at high resolution how the EPM analogs interact with AcrB, we used cryo-electron microscopy (cryo-EM). We overproduced and purified the E. coli AcrB protein containing a 6×His tag at the C-terminus and reconstituted the protein into lipidic nanodiscs ([17]). We incubated the AcrB-nanodisc samples with the parent compound or with one of three structurally dissimilar EPMs analogs (CU032, CU232, CU244) to form AcrB-EPM complexes. We then solved single-particle cryo-EM structures of these complexes to resolutions between 2.63 and 2.82 Å (Table 2; Fig. 3).
AcrB was purified from E. coli BL21(DE3)ΔacrB/pSPORTΩacrB cells and reconstituted into lipidic nanodiscs. To assemble AcrB into nanodiscs, a mixture containing 10 µM AcrB, 30 µM membrane scaffold protein (1E3D1), and 900 µM E. coli total extract lipid was incubated for 15 min at room temperature. After, 0.8 mg/mL prewashed Bio-Beads (Bio-Rad) was added. The resultant mixture was incubated for 1 h on ice, followed by overnight incubation at 4°C. The protein-nanodisc solution was filtered through 0.22 µm nitrocellulose filter tubes to remove the Bio-Beads. To separate free nanodiscs from AcrB-loaded nanodiscs, the filtered protein-nanodisc solution was purified using a Superose six column (GE Healthcare) equilibrated with 20 mM Tris-HCl (pH 7.5) and 100 mM NaCl. Fractions corresponding to the size of the trimeric AcrB-nanodisc complex were collected for cryo-EM ([46]). We then incubated 0.6 mg/mL AcrB-nanodisc with 10 µM EPM for 2 h and solved structure of the AcrB-EPM complex using single-particle cryo-EM to a resolution of 2.20 Å.

[3] = 5 uM compound, n=1, DMSO solvent control = 100
[4] = 25 uM compound, n=1, DMSO solvent control = 100

T1 sequence (P31224 whole entry): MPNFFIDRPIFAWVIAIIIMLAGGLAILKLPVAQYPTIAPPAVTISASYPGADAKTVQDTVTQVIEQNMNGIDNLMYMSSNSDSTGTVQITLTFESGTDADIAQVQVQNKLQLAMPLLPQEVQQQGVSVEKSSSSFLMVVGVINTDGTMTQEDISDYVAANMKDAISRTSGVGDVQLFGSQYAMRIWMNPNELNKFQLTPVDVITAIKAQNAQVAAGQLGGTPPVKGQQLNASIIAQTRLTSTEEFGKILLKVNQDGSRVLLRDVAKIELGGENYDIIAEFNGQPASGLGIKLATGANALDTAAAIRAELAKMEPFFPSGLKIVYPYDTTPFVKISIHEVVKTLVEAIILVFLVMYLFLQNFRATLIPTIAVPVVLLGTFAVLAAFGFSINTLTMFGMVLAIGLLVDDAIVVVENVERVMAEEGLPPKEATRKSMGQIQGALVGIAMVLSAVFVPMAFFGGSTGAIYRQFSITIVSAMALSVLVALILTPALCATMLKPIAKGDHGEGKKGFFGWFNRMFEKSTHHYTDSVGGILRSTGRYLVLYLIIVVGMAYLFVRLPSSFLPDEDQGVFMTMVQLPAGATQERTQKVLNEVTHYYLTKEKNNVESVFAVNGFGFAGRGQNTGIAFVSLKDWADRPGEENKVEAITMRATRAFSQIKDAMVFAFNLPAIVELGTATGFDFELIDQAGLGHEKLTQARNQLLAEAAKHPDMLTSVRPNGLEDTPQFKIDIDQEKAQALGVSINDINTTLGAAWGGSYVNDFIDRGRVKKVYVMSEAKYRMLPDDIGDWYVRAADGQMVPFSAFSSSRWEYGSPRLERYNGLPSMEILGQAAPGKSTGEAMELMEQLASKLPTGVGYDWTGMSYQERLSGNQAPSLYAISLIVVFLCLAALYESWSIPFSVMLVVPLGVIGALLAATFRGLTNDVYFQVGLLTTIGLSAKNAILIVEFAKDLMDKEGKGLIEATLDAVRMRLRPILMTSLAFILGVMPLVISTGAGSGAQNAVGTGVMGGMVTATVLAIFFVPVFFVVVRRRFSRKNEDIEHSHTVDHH

Structure (SMILES) | 5 uM Avg Cell # Score [1, 3] | 25 uM Avg Cell # Score [1, 4] | binding site in AcrB (cryo-EM) [2] | 5 uM Avg Cell # Score ([1]; 5 uM) | 25 uM Avg Cell # Score ([1]; 25 uM) | 5 uM Avg Cell # Score ([1]; 5 uM, listed as CU035) | 25 uM Avg Cell # Score ([1]; 25 uM, listed as CU035)
OC(CN[C@H]1[C@@H]2CNC[C@@H]21)COc1cc(Cl)cc(Cl)c1 (some centres unmarked) [CU244] | 121 | 108 | distal drug-binding site |  |  |  | 
NC1CCN(CC(O)COc2cccc(C(F)(F)F)c2)CC1 (centres unmarked) [CU232] | 124 | 113 | distal drug-binding site |  |  |  | 
NC1CCN(CC(O)COc2ccc(Cl)c(Cl)c2)C1 (centres unmarked) [CU032] |  |  | distal drug-binding pocket | 95 | 95 |  | 
OC(COc1ccc(Cl)c(Cl)c1)CN1CCC(Nc2nccc(C(F)(F)F)n2)CC1 (centres unmarked) [EPM35] |  |  | distal drug-binding pocket | 98 | 72 | 107 | 134
